Type in all cases: in vivo, rat
One assay deals with VP-16-induced alopecia. Put plainly: VP-16 (Etoposide)-induced alopecia in young rats. The procedure: Twelve 7 day old rats were randomized in two groups. Group I was treated daily with buffer 0.1 ml s.c. for four days. The second Group was treated daily with Vitamin D3 50 μg s.c. over head for four days. After stopping the buffer or Vitamin D3 treatment, all rats received 1.5 mg/kg i.p. of VP-16 (Etoposide) daily for three days.
(§1) 1,25-Dihydroxyvitamin D3 was dissolved in absolute ethanol and applied topically with an applicator. Control animals were similarly treated with the same amount of ethanol. Animals were then kept individually separated for a period of three hours following which the treated area was carefully washed with soap and water and dried. Treatment was given daily beginning on day 5 after birth and ending on day 10.
All chemotherapies were given I.P. and started at 11 days of age. CTX, 35 mg/kg, was given for one day only. VP-16, 1.5 mg/kg, was given for three days. For CTX and ADM combination, CTX, 25 mg/kg was given for one day and ADM, 2.5 mg/kg, for three days. At these doses neither CTX nor ADM alone will produce alopecia. Alopecia was recorded on the tenth day from beginning chemotherapy.
(§2) A total of 4 experiments were carried out. In the first experiment, protection from Cytoxan-induced alopecia was examined. The experimental group was pretreated with 0.2 μg of 1,25-dihydroxyvitamin D3 in 0.15 ml of absolute ethanol applied topically over the head and neck and the control group received 0.15 ml of alcohol. All 10 rats in the control group became totally alopecic. […] The second experiment was carried out under similar conditions to examine protection from VP-16-induced alopecia. All 10 rats in the control group developed total body alopecia. […] The third experiment was designed to examine protection from alopecia induced by Cytoxan-Adriamycin combination. There were 11 rats in each group. Six rats in the control group developed alopecia over the head and neck and 5 rats developed total body alopecia. […] In the fourth experiment, protection from VP-16-induced alopecia was similarly examined except that the dose of 1,25-dihydroxyvitamin D3 was reduced to 0.1 μg in 0.1 ml absolute ethanol applied topically over the head area only. All 10 rats in the control group became completely alopecic.
RO 23-7553 (1,25 dihydroxy-16-ene-23-yne-cholecalciferol) was dissolved in absolute ethanol and applied topically with an applicator. Control animals were similarly treated with the same amount of ethanol. Animals were then kept individually separated for a period of three hours following which the treated area was carefully washed with soap and water and dried. Treatment was given daily beginning on day 9 after birth and ending on day 14.
On day 15 all animals received VP-16, 1.5 mg/kg i.p., for three days. Alopecia was recorded on day 25.
Thirteen rats were randomized in two groups. Experimental group, 7 rats; control group, 6 rats. The experimental group was pretreated with 1 μg of RO 23-7553 in 0.2 ml absolute ethanol applied topically over the neck and back and the control group received 0.2 ml of absolute ethanol. All six rats in the control group became totally alopecic over the neck and back.

The next assay concerns ARA-C-induced alopecia. Put plainly: ARA-C-induced alopecia in young rats. How it is done:
Sprague Dawley rats were purchased from Charles River Laboratories, Wilmington, Mass. Cytosar-U (ARA-C) was from the Upjohn Company, Kalamazoo, Mich. Receptor grade EGF from mouse submaxillary glands, human recombinant EGF, dimethyl sulfoxide (DMSO) and Vitamin D3 were purchased from Sigma Chemical Co., St. Louis, Mo. aFGF was purchased from AMGEN Corp., Thousand Oaks, Calif.
All rats from each experiment were treated with ARA-C 50 mg/kg intraperitoneally (i.p.) daily for 7 days. For subcutaneous (s.c.) injections, EGF and FGF were prepared in PBS 1% BSA. Alopecia was always recorded on day 12 of experiment, and scored as previously described (Hussein et al, Science, 249:1564-1566, 1990; Jimenez et al, FASEB J., 1991).
For topical treatment, murine EGF was prepared as follows: One vial of EGF (100 μg) was dissolved in 0.2 ml of PBS 1% BSA and 0.12 ml of this solution was added to 0.48 of DMSO. Three hours prior to ARA-C injection, 0.1 ml of the EGF-DMSO mixture was applied to each rat over a 1 cm^2 area between the shoulders using a rubber tip applicator. Rats were then kept individually separated for a period of three hours, following which the treated area was carefully washed with soap and water and dried. Treatment was continued for 7 days. Control animals were similarly treated using DMSO without EGF.
Two separate experiments were conducted to test the ability of murine EGF to protect from ARA-C-induced alopecia. In Experiment I, twenty-two 7-day old rats were randomized in two groups of eleven rats each. In addition to ARA-C, Group I received 2 μg of mouse EGF s.c. in the back between the two hind legs 3 hours prior to ARA-C injections daily for 7 days. Group II, received buffer solution similarly and served as control. Ten of eleven rats in Group II developed virtually total body alopecia and one rat developed more than 50% hair loss. In contrast, in Group I, 5 rats had no detectable hair loss and 6 rats had mild hair loss (Table I, Experiment I (FIG. 1)). In Experiment II, twelve 7-day old rats were randomized in two groups of 6 rats each. In addition to ARA-C, Group I received mouse EGF 1 μg s.c. daily for 7 days. Group II received buffer s.c. All 6 rats in Group II developed moderately severe to severe alopecia, whereas in Group I, one rat had no detectable hair loss and 5 rats developed only minimal hair loss (Table I, Experiment II).
For the next experiment, rHu-EGF was used. Twelve 7-day old rats were randomized in two groups of six rats each. In addition to ARA-C, Group I received rHu-EGF 2 μg s.c. in the flank area daily for 7 days. Group II received buffer s.c. All 6 rats in Group II developed total body alopecia, whereas in Group I none of the rats had total body alopecia, one rat had no detectable hair loss, four rats had mild alopecia and one rat had moderate alopecia (Table I, Experiment III, (FIG. 2)).
In the next experiment, twelve 7-day old rats were randomized in two groups of six rats each. Group I, in addition to ARA-C, received murine-EGF 10 μg in DMSO daily×7 days rubbed topically with a cotton tip applicator between the shoulder blades over an area of 1 cm^2. Group II received control solution topically. In Group II, all six rats developed complete body alopecia.
Fourteen 7-day old rats were randomized in two groups. All rats received ARA-C 50 mg/kg/day for seven days. In addition, Group I received aFGF 2 μg s.c. on back of head daily for seven days. Group II received buffer injections and served as controls. Alopecia was recorded on day 12 of experiment. All rats in Group II developed complete body alopecia.

Assay [1] concerns Cytoxan/Adriamycin-induced alopecia. Put plainly: Cytoxan/Adriamycin combination-induced alopecia in young rats. The procedure: Eight 4-day old Sprague Dawley rats were randomized in two groups of 4 rats each. Group I, received EGF […] s.c. on the head daily for 7 days. Group II received buffer injections and served as controls. One day after stopping EGF or buffer injections all rats received Cytoxan 25 mg/kg i.p.×1 day and Adriamycin 2.5 mg/kg i.p.×3 days. […] (FIG. 5).
as §1
All chemotherapies were given I.P. and started at 11 days of age. CTX, 35 mg/kg, was given for one day only. VP-16, 1.5 mg/kg, was given for three days. For CTX and ADM combination, CTX, 25 mg/kg was given for one day and ADM, 2.5 mg/kg, for three days. […] Alopecia was recorded on the tenth day from beginning chemotherapy.
as §2, with “alcohol.” for “alcohol. All 10 rats in the control group became totally alopecic.”, “VP-16-induced” for “VP-16-induced alopecia. All 10 rats in the control group developed total body”, “group.” for “group. Six rats in the control group developed alopecia over the head and neck and 5 rats developed total body alopecia.”, “only.” for “only. All 10 rats in the control group became completely alopecic.”

The test system of the next assay is Cytoxan-induced alopecia. Put plainly: Cytoxan-induced alopecia in young rats. As to conditions: 50 μg daily i.p. or s.c. for 4 days prior to chemotherapy; Cytoxan 32.5 mg/kg single injection; 7 experiments, 89 animals.
The mark [2] stands for this setting: Experiment I, 2 μg s.c. daily × 7 days, 3 hours prior to ARA-C 50 mg/kg i.p. × 7 days, 11 rats, day 12.
Where [3] appears, read: Experiment II, 1 μg s.c. daily × 7 days with ARA-C 50 mg/kg i.p. × 7 days, 6 rats, day 12.
The mark [4] stands for this setting: 2μ s.c. on the head daily for 7 days, then Cytoxan 25 mg/kg i.p. × 1 day and Adriamycin 2.5 mg/kg i.p. × 3 days, 4 rats.
Setting [5] is: Experiment III, 2 μg s.c. in flank daily × 7 days with ARA-C 50 mg/kg i.p. × 7 days, 6 rats, day 12.
Setting [6] is: Experiment III, 2 μg s.c. in flank daily × 7 days with ARA-C 50 mg/kg i.p. × 7 days, 6 rats, day 12, listed as rHu-ECF.

Consider `C=C1/C(=C\C=C2/CCC[C@]3(C)C([C@H](C)CC#CC(C)(C)O)=CC[C@@H]23)C[C@@H](O)C[C@@H]1O` [RO 23-7553, 1,25 dihydroxy-16-ene-23-yne-cholecalciferol], for which the “Protection from VP-16-induced alopecia” value in the assay on VP-16-induced alopecia (1 μg in 0.2 ml absolute ethanol topically over neck and back, day 9 to 14 after birth, VP-16 1.5 mg/kg i.p. for three days from day 15, recorded day 25, 7 rats) was “all animals in the experimental group were protected”.
Consider `C=C1CC[C@H](O)C/C1=C/C=C1\CCC[C@]2(C)[C@@H]([C@H](C)CCCC(C)C)CC[C@@H]12` [Vitamin D3], for which the Protection from alopecia result in the assay with ARA-C-induced alopecia (50 μg daily i.p. or s.c. for 4 days prior to chemotherapy, ARA-C 50 mg/kg i.p. daily for 7 days, 1 experiment, 8 animals) was “excellent protection and Yes*”; in assay [1] (50 μg daily i.p. or s.c. for 4 days prior to chemotherapy, Adriamycin 2.5 mg/kg i.p. daily for 3 days plus Cytoxan 25 mg/kg single injection, 6 experiments, 77 animals), “excellent protection and Yes*”; in the assay with Cytoxan-induced alopecia, “excellent protection and Yes*”; in the assay on VP-16-induced alopecia (50 μg daily i.p. or s.c. for 4 days prior to chemotherapy, VP-16 1.5 mg/kg i.p. daily for 3 days, 2 experiments, 22 animals), “excellent protection and Yes*”. Besides, the “Protection from VP-16-induced alopecia” value in the assay on VP-16-induced alopecia (50 μg s.c. over head daily for four days, then VP-16 1.5 mg/kg i.p. daily for three days) is “protected”.
“Murine EGF: Receptor grade EGF from mouse submaxillary glands (Sigma) (NSYPGCPSSYDGYCLNGGVCMHIESLDSYTCNCVIGYSGDRCQTRDLRWWELR; Epidermal growth factor; UniProt P01132 977-1029, looked up)”: in the assay on ARA-C-induced alopecia (10 μg in DMSO daily × 7 days topically between shoulder blades over 1 cm^2, ARA-C 50 mg/kg × 7 days, 6 rats), the “Alopecia after topical treatment” value is on record as “all rats developed complete body alopecia except where the EGF was applied topically”. In the assay on ARA-C-induced alopecia (setting [2]), the “Number of rats with alopecia 0 (no detectable alopecia)” value (from here on “Number … (no detectable alopecia)”) came out at 5; the “Number of rats with alopecia 1+ (mild, less than 50% hair loss)” value (“Number … (mild, less than 50% hair loss)” below) is 6; the “Number of rats with alopecia 2+ (moderately severe, more than 50% hair loss)” value was 0; the “Number of rats with alopecia 3+ (total or virtually total, >90% hair loss)” value was 0. Also, in the assay on ARA-C-induced alopecia (setting [3]), the “Number … (no detectable alopecia)” value is 1; the “Number … (mild, less than 50% hair loss)” value is given as 5; the “Number of rats with alopecia 2+ (moderately severe, more than 50% hair loss)” value stood at 0; the “Number of rats with alopecia 3+ (total or virtually total, >90% hair loss)” value came out at 0. Also, the “Number … (no detectable alopecia)” value with ARA-C-induced alopecia (Experiment II, 1 μg s.c. daily × 7 days with ARA-C 50 mg/kg i.p. × 7 days, 6 rats, day 12, listed as mouse EGF) was “one”. In addition, in assay [1] (setting [4]), the “Number of rats with mild alopecia over head and neck” value is “one”; the “Number of rats with minimal alopecia over head and neck” value is on record as “one”; the “Number of rats with no detectable alopecia over head and neck” value is given as “two”.
“aFGF: aFGF, a fibroblast growth factor, purchased from AMGEN Corp.”: the “Protection from ARA-C-induced alopecia” value in the assay with ARA-C-induced alopecia (2 μg s.c. on back of head daily for seven days, ARA-C 50 mg/kg/day for seven days, day 12) is recorded as “protected locally at the site of injection”.
For the molecule rHu-EGF: human recombinant EGF (Sigma), in the assay with ARA-C-induced alopecia (setting [5]), the “Number … (no detectable alopecia)” value was “one”; the “Number … (mild, less than 50% hair loss)” value is “four”; the “Number of rats with alopecia 2+ (moderately severe, more than 50% hair loss)” value is “one”; the “Number of rats with alopecia 3+ (total or virtually total, >90% hair loss)” value is reported as “none”. Also, in the assay on ARA-C-induced alopecia (setting [6]), the “Number … (no detectable alopecia)” value came to 1; the “Number … (mild, less than 50% hair loss)” value was determined as 4; the “Number of rats with alopecia 2+ (moderately severe, more than 50% hair loss)” value came to 1; the “Number of rats with alopecia 3+ (total or virtually total, >90% hair loss)” value was 0.

Source of the values: patent US20020035097A1, “Method of preventing and treating chemotherapy-induced alopecia” (priority 1991, published 2002).
